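Each compound was tested at five concentrations against cells in 96-well plates for 48 hours. GI50: concentration for 50% inhibition of growth. Definition used: TGI = concentration required for complete inhibition of growth.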
Experiments:
Assay in all cases: growth of human tumour cells (NCI), 48 h
786-0 renal = test system: 786-0 renal
A498 renal = test system: A498 renal
A549 NSCLC = test system: A549 NSCLC
ACHN renal = test system: ACHN renal
BT-549 breast = test system: BT-549 breast
CAKI-1 renal = test system: CAKI-1 renal
CCRF-CEM leukemia = test system: CCRF-CEM leukemia
COLO 205 colon = test system: COLO 205 colon
DU-145 prostate = test system: DU-145 prostate
HCC-2998 colon = test system: HCC-2998 colon
HCT-116 colon = test system: HCT-116 colon
HCT-15 colon = test system: HCT-15 colon
HL-60(TB) leukemia = test system: HL-60(TB) leukemia
HOP-62 NSCLC = test system: HOP-62 NSCLC
HOP-92 NSCLC = test system: HOP-92 NSCLC
HS 578T breast = test system: HS 578T breast
HT29 colon = test system: HT29 colon
IGROV1 ovarian = test system: IGROV1 ovarian
K-562 leukemia = test system: K-562 leukemia
KM12 colon = test system: KM12 colon
LOX IMVI melanoma = test system: LOX IMVI melanoma
M14 melanoma = test system: M14 melanoma
MALME-3M melanoma = test system: MALME-3M melanoma
MCF7 breast = test system: MCF7 breast
MDA-MB-231 breast = test system: MDA-MB-231 breast
MDA-MB-435 = test system: MDA-MB-435
MOLT-4 leukemia = test system: MOLT-4 leukemia
NCI-H226 lung = test system: NCI-H226 lung
NCI-H23 lung = test system: NCI-H23 lung
NCI-H460 lung = test system: NCI-H460 lung
NCI-H522 lung = test system: NCI-H522 lung
NCI/ADR-RES ovarian = test system: NCI/ADR-RES ovarian
OVCAR-3 ovarian = test system: OVCAR-3 ovarian
OVCAR-4 ovarian = test system: OVCAR-4 ovarian
OVCAR-5 ovarian = test system: OVCAR-5 ovarian
OVCAR-8 ovarian = test system: OVCAR-8 ovarian
PC-3 prostate = test system: PC-3 prostate
RPMI-8226 leukemia = test system: RPMI-8226 leukemia
RXF 393 renal = test system: RXF 393 renal
SF-268 CNS = test system: SF-268 CNS
SF-295 CNS = test system: SF-295 CNS
SF-539 CNS = test system: SF-539 CNS
SK-MEL-28 melanoma = test system: SK-MEL-28 melanoma
SK-MEL-5 melanoma = test system: SK-MEL-5 melanoma
SK-OV-3 ovarian = test system: SK-OV-3 ovarian
SN12C renal = test system: SN12C renal
SNB-19 CNS = test system: SNB-19 CNS
SNB-75 CNS = test system: SNB-75 CNS
SR leukemia = test system: SR leukemia
SW-620 colon = test system: SW-620 colon
T-47D breast = test system: T-47D breast
TK-10 renal = test system: TK-10 renal
U251 CNS = test system: U251 CNS
UACC-257 melanoma = test system: UACC-257 melanoma
UACC-62 melanoma = test system: UACC-62 melanoma
UO-31 renal = test system: UO-31 renal

## FC(F)(F)c1cccc(Nc2nc3ccccc3nc2Nc2cccc(C(F)(F)F)c2)c1
786-0 renal
  GI50: 1810 nM
  TGI: 3910 nM
A498 renal
  GI50: 663 nM
  TGI: 3990 nM
A549 NSCLC
  GI50: 368 nM
  TGI: 2810 nM
ACHN renal
  GI50: 415 nM
  TGI: 2230 nM
BT-549 breast
  GI50: 2710 nM
  TGI: 7600 nM
CAKI-1 renal
  GI50: 1020 nM
  TGI: 8780 nM
CCRF-CEM leukemia
  GI50: 710 nM
  TGI: 3840 nM
COLO 205 colon
  GI50: 682 nM
  TGI: 2180 nM
DU-145 prostate
  GI50: 732 nM
  TGI: 13000 nM
HCC-2998 colon
  GI50: 2930 nM
  TGI: 7450 nM
HCT-116 colon
  GI50: 361 nM
  TGI: 1520 nM
HCT-15 colon
  GI50: 515 nM
  TGI: 2050 nM
HL-60(TB) leukemia
  GI50: 1860 nM
  TGI: 4770 nM
HOP-62 NSCLC
  GI50: 762 nM
  TGI: 2170 nM
HOP-92 NSCLC
  GI50: 1360 nM
  TGI: 4670 nM
HS 578T breast
  GI50: 2670 nM
  TGI: 7880 nM
HT29 colon
  GI50: 391 nM
  TGI: 2030 nM
IGROV1 ovarian
  GI50: 3200 nM
  TGI: 16800 nM
K-562 leukemia
  GI50: 1280 nM
  TGI: 5610 nM
KM12 colon
  GI50: 1990 nM
  TGI: 4950 nM
LOX IMVI melanoma
  GI50: 1500 nM
  TGI: 3070 nM
M14 melanoma
  GI50: 972 nM
  TGI: 3150 nM
MALME-3M melanoma
  GI50: 2130 nM
  TGI: 6330 nM
MCF7 breast
  GI50: 2040 nM
  TGI: 9630 nM
MDA-MB-231 breast
  GI50: 993 nM
  TGI: 2730 nM
MDA-MB-435
  GI50: 1030 nM
  TGI: 2880 nM
MOLT-4 leukemia
  GI50: 1510 nM
  TGI: 4340 nM
NCI-H226 lung
  GI50: 1210 nM
  TGI: 2980 nM
NCI-H23 lung
  GI50: 1720 nM
  TGI: 6310 nM
NCI-H460 lung
  GI50: 457 nM
  TGI: 10100 nM
NCI-H522 lung
  GI50: 335 nM
  TGI: 1630 nM
NCI/ADR-RES ovarian
  GI50: 1980 nM
  TGI: 11400 nM
OVCAR-3 ovarian
  GI50: 444 nM
  TGI: 4300 nM
OVCAR-4 ovarian
  GI50: 2930 nM
  TGI: 14600 nM
OVCAR-5 ovarian
  GI50: 454 nM
  TGI: 3390 nM
OVCAR-8 ovarian
  GI50: 745 nM
  TGI: 5570 nM
PC-3 prostate
  GI50: 495 nM
  TGI: 7610 nM
RPMI-8226 leukemia
  GI50: 797 nM
  TGI: 3950 nM
RXF 393 renal
  GI50: 882 nM
  TGI: 2340 nM
SF-268 CNS
  GI50: 1290 nM
  TGI: 13000 nM
SF-295 CNS
  GI50: 1920 nM
  TGI: 5410 nM
SF-539 CNS
  GI50: 959 nM
  TGI: 3120 nM
SK-MEL-28 melanoma
  GI50: 1710 nM
  TGI: 4730 nM
SK-MEL-5 melanoma
  GI50: 481 nM
  TGI: 1700 nM
SK-OV-3 ovarian
  GI50: 437 nM
  TGI: 1580 nM
SN12C renal
  GI50: 442 nM
  TGI: 2850 nM
SNB-19 CNS
  GI50: 732 nM
  TGI: 15400 nM
SNB-75 CNS
  GI50: 1150 nM
  TGI: 6710 nM
SR leukemia
  GI50: 1110 nM
  TGI: 3360 nM
SW-620 colon
  GI50: 1710 nM
  TGI: 4010 nM
T-47D breast
  GI50: 1410 nM
  TGI: 4730 nM
TK-10 renal
  GI50: 1470 nM
  TGI: 3800 nM
U251 CNS
  GI50: 427 nM
  TGI: 1910 nM
UACC-257 melanoma
  GI50: 2020 nM
  TGI: 5540 nM
UACC-62 melanoma
  GI50: 1560 nM
  TGI: 5470 nM
UO-31 renal
  GI50: 1980 nM
  TGI: 11000 nM

— PubChem BioAssay (NCI)
